Test results from US20210023089A1, “Compositions Useful for Treating Herpes Simplex Keratitis, and Methods Using Same” (priority 2013, published 2021).

System: HSV-1
Experiment: HSV-1 replication (relative genome level) in normal and cancer cell lines
Format: cell-based
Settings: KU-55933 10 μM
Procedure: All cells were cultured at 37° C. and 5% CO2, and supplemented with 100 U/ml penicillin and 100 μg/ml streptomycin. hTCEpi human corneal epithelial cells were cultured in KGM-2 (Lonza, Basel, Switzerland). HCE human corneal epithelial cells were cultured in DMEM/F-12 supplemented with 10% FBS. EPC2 human esophageal epithelial cells were cultured in KSFM (Carlsbad, Calif.). OKF6 human oral epithelial cells were cultured in KSFM. E5 cells, which are CV-1 cells stably expressing HSV-1 ICP4 protein, were cultured in DMEM supplemented with 10% FBS. HEK293 human embryonic kidney epithelial cells, HeLa human cervical adenocarcinoma cells, U2OS human osteosarcoma cells, H1299 human lung carcinoma cells, and SH-SY5Y human neuroblastoma cells were all obtained from American Type Culture Collection and cultured in DMEM supplemented with 10% FBS.
Total DNA was isolated from infected cells using the DNeasy Blood & Tissue Kit (QIAGEN, Hilden, Germany). Real time quantitative PCR was performed with SYBR Green (Bio-Rad, Hercules, Calif.). Target primers for UL30 (DNA polymerase catalytic subunit) and reference primers for GAPDH were used to measure genome replication. Primer sequences were provided in Alekseev et al., 2014, Invest. Ophthalm. Vis. Sci. 55:706-715). Real time PCR data were processed using the ΔΔC(t) method. […]

## O=c1cc(-c2cccc3c2Sc2ccccc2S3)oc(N2CCOCC2)c1 [KU-55933, 2-(morpholin-4-yl)-6-(thianthren-1-yl)-pyran-4-one]
HeLa, U2OS, H1299, SH-SY5Y
  HSV-1 replication in transformed or cancer cell lines: little effect
hTCEpi, HCE, OKF6, EPC2
  HSV-1 replication in normal cell types: potently suppressed
